Reference: PMC8579695, “The Stringent Response Inhibits 70S Ribosome Formation in Staphylococcus aureus by Impeding GTPase-Ribosome Interactions” (mBio, 2021)

Key:
Era = Era (Staphylococcus aureus, UniProt Q2FGF6); assay: DRaCALA binding of 32P-labeled nucleotides to 6×His-tagged Era; details: for Bmax, Era: mean ± SEM, Bmax values indicate the fraction bound
Procedure: (§1) The RA-GTPases RsgA, Era, RbgA, and HflX can bind to the guanosine nucleotides GTP, GDP, ppGpp, and pppGpp. Our previous work observed higher binding affinities for ppGpp over GTP, pointing toward a difference in binding between 5′ di- or triphosphate nucleotides ([27]). […] Furthermore, these previous experiments were performed using recombinant proteins fused to large MBP tags, which could impact binding affinity determination. To examine the nucleotide binding affinities of these RA-GTPases for GDP in comparison to ppGpp, pppGpp, and GTP, and in the absence of a large tag, we used a differential radial capillary action of ligand assay (DRaCALA) with recombinant RsgA, RbgA, Era, and HflX fused to a smaller 6× His tag (Fig. 1B; see also Fig. S2A to C in the supplemental material) ([36]). In each case, the affinities of 5′ diphosphate-containing GDP and ppGpp were similar in the low μM range and were 2- to 6-fold higher than the affinities of either GTP or pppGpp (Table 1).
(§2) Supplementary file : FIG S2 Examination of the binding of GDP, ppGpp, GTP, and pppGpp to RA-GTPases by DRaCALA. (A to C) Determination of binding affinities and Kd values for ^32P-labeled nucleotides to purified recombinant 6×His-tagged RsgA (A), Era (B), and HflX (C). Kd values were determined from the binding curves as previously described ([36]). (D to F) DRaCALA binding assay of recombinant RsgA (D), Era (E), and HflX (F) binding to ^32P-labeled GTP, ppGpp, and pppGpp in the presence or absence of 100 μM cold competitors (GTP, GDP, ppGpp, pppGpp, and ATP). All experiments were carried out in triplicate, with error bars representing standard deviations. Download FIG S2, TIF file, 0.9 MB.
(§3) The synthesis of (p)ppGpp and differential radial capillary action of ligand assay (DRaCALA) binding and competition assays were performed as described previously ([27]), using recombinant, 6×His-tagged protein at the concentrations specified in the figure legends.

HflX = HflX (Staphylococcus aureus, UniProt Q2FYY9); assay: DRaCALA binding of 32P-labeled nucleotides to 6×His-tagged HflX; details: for Bmax, HflX: mean ± SEM, Bmax values indicate the fraction bound
Sequence of HflX (Q2FYY9 entry or part of it): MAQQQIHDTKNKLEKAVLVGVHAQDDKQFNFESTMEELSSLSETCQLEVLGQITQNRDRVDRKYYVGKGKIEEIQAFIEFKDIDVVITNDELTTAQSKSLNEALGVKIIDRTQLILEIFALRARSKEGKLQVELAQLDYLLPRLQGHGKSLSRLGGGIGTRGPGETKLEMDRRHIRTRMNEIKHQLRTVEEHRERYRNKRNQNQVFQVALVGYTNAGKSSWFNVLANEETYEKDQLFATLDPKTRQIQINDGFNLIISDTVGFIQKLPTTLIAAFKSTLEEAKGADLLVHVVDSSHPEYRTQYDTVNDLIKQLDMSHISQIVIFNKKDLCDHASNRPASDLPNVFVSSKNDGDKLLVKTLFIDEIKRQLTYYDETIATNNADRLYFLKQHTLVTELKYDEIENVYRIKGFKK
Procedure: as §1, §2, §3

RbgA = RbgA (Staphylococcus aureus, UniProt A0A0H2XK72); assay: DRaCALA binding of 32P-labeled nucleotides to 6×His-tagged RbgA; details: for Bmax, RbgA: mean ± SEM, Bmax values indicate the fraction bound
Sequence of RbgA (A0A0H2XK72 entry or part of it): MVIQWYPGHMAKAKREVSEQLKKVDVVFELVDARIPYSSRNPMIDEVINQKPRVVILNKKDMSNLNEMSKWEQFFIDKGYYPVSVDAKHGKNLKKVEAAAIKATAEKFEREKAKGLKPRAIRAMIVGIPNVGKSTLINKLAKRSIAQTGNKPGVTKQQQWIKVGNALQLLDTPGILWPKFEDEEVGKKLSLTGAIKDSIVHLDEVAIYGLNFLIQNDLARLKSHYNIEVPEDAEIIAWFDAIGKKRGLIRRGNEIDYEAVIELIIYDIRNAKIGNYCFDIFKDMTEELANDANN
Text: FIG 1 Nucleotide binding characteristics of RA-GTPases. (A) Schematic representation of the domain structure of Era, RsgA, RbgA, and HflX from S. aureus. The conserved GTPase domain (G domain) is colored in green, and accessory domains are shown. (B) Determination of binding affinities and Kd values for ^32P-labeled GTP, GDP, ppGpp, and pppGpp with purified recombinant 6×His-tagged RbgA using DRaCALA, as previously described ([36]). Each point is the mean average of at least three technical replicates, and error bars indicate standard deviations. (C) Binding assay (DRaCALA) of recombinant RbgA binding to ^32P-labeled GTP, ppGpp, and pppGpp in the presence of an excess of cold competitor (GTP, GDP, ppGpp, pppGpp, or ATP). All experiments were carried out in triplicate, with error bars representing standard deviations.
as §1, §3

RsgA = RsgA (Staphylococcus aureus, UniProt P67682); assay: DRaCALA binding of 32P-labeled nucleotides to 6×His-tagged RsgA; details: for Bmax, RsgA: mean ± SEM, Bmax values indicate the fraction bound
Sequence of RsgA (P67682 whole entry): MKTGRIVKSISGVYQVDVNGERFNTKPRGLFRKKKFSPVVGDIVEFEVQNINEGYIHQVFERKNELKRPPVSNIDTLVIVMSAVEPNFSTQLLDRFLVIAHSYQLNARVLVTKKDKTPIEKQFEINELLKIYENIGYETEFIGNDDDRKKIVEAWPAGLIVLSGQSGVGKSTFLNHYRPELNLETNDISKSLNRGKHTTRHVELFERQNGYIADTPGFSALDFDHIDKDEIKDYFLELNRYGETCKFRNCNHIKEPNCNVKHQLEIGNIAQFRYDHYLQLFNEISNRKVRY
Procedure: as §1, §2, §3

[1] = test system: HflX binding to 50S ribosomes; assay: Stopped-flow fluorescence kinetics of HflX-Atto488 association to 50S subunits; design: species or system Staphylococcus aureus
Procedure: FIG 3 Stopped-flow kinetic parameters of RA-GTPase association to the ribosomal subunits. (A) Schematic representation of the experimental setup for stopped-flow analysis. Nucleotides (brown circles), 50S subunits (orange oval), and Atto488-labeled RA-GTPases (purple hexagon) are indicated. Arrows indicate the direction of syringe movement. Atto-488 was excited using a 470-nm LED, and fluorescence was detected through a 515-nm long-pass filter. (B and C) Fluorescent change upon mixing 0.2 μM RbgA-Atto488 (B) or HflX-Atto488 (C) with 0.2 μM 50S ribosomal subunits in the presence of 100 μM GTP, ppGpp, and pppGpp or in the apo state using the stopped-flow fluorescence apparatus. Fluorescently labeled protein was also mixed with buffer lacking 50S subunits as a mixing control. Fluorescence of the reaction was tracked using exponential sampling for 10 s, and each curve represents the mean average of at least five technical replicates. (D) kapp1 dependence on 50S concentration for HflX complexed with GTP (green), ppGpp (pink), and pppGpp (black). (E) Same as for panel D for the kapp2 dependence. (F and G) Sum and product analyses of apparent rates during HflX association to the 50S subunit. HflX-Atto488 (0.05 μM) was mixed with increasing titrations of 50S ribosomal subunits over the fluorescently labeled protein in the presence of 20 μM GTP or ppGpp. The resultant traces (see Fig. S4) were analyzed by nonlinear regression using two exponential terms. The sum (F) and product (G) of apparent rates (kapp1 [D] and kapp2 [E]) were plotted as a function of the total concentration of the 50S subunits and HflX protein to determine the microscopic constants k1, k-1, k2, and k-2 (Table 2) and the resulting dissociation constant (Kd) (see Materials and Methods). Error bars represent the standard deviations of the apparent rates of four or more individual traces (D and E) or the standard errors of the two-step analysis (F and G).
Next, we used a constant concentration of protein in the presence of 200-fold excess of each nucleotide and titrated it with increasing concentrations of ribosomal subunits (see Fig. S4). […]
For initial controls, 0.2 μM Atto-488-labeled proteins were rapidly mixed with 0.2 μM E. coli 50S ribosomal subunits (purified as described elsewhere) in TAKM7 buffer (25 mM Tris-HCl [pH 7.4], 70 mM ammonium acetate, 30 mM KCl, 7 mM MgCl2) using an SX20 stopped-flow apparatus (Applied Photophysics) in the presence or absence of GTP, ppGpp, and pppGpp. […] Atto-488 was excited using a 470-nm LED and fluorescence was detected through a 515-nm long-pass filter. Reactions were monitored for 10 s, with 1,000 total data points per reaction. Each condition was subject to at least five technical repeats, with curves representing the mean average fluorescence of the technical repeats. […]

[2] = test system: RA-GTPases RsgA, RbgA, Era, and HflX; assay: DRaCALA binding and competition assays across the four RA-GTPases; design: species or system Staphylococcus aureus; details: 100 μM cold competitor
Text: FIG 1 Nucleotide binding characteristics of RA-GTPases. (A) Schematic representation of the domain structure of Era, RsgA, RbgA, and HflX from S. aureus. The conserved GTPase domain (G domain) is colored in green, and accessory domains are shown. (B) Determination of binding affinities and Kd values for ^32P-labeled GTP, GDP, ppGpp, and pppGpp with purified recombinant 6×His-tagged RbgA using DRaCALA, as previously described ([36]). Each point is the mean average of at least three technical replicates, and error bars indicate standard deviations. (C) Binding assay (DRaCALA) of recombinant RbgA binding to ^32P-labeled GTP, ppGpp, and pppGpp in the presence of an excess of cold competitor (GTP, GDP, ppGpp, pppGpp, or ATP). All experiments were carried out in triplicate, with error bars representing standard deviations. […]
Supplementary file : FIG S2 Examination of the binding of GDP, ppGpp, GTP, and pppGpp to RA-GTPases by DRaCALA. […] Kd values were determined from the binding curves as previously described ([36]). […]
Structural data places (p)ppGpp within the GTP-binding site of the RA-GTPase RbgA ([6]), indicating a competitive mode of inhibition. […] Based on our measured affinities (Table 1), we speculate that both GDP and ppGpp will outcompete other nucleotides for occupancy of the binding site. […]

[3] = test system: HflX association to the 30S and 50S ribosomal subunits; assay: In vitro ribosome association assay (sucrose gradient, α-His Western immunoblot), HflX; type: binding, Staphylococcus aureus; details: 40 μM nucleotide; compared to apo, GTP, or GMPPNP-bound states
Text: (§4) It is well characterized that rRNA transcription decreases during the stringent response ([39]). In addition, the GTPase activity of ribosome assembly cofactors is inhibited by (p)ppGpp, both of which contribute to a reduction in mature ribosomes within the cell ([27]). To examine mechanistically how (p)ppGpp-GTPase interactions affect the ability of RA-GTPases to associate with ribosomal subunits, we examined the association of each GTPase to either the 30S or 50S ribosomal subunit in the presence of GDP, GTP, ppGpp, and pppGpp, as well as GMPPNP, a nonhydrolyzable analogue of GTP. The production and isolation of immature subunits, which can comprise several different immature states, introduces a large degree of heterogeneity, and so here we, and others, use homogenous mature particles as a system to examine the binding event, rather than the role of GTPase activity in downstream maturation ([11], [12], [29], [40], [41]). His-tagged GTPases were preincubated with highly pure, salt-washed 70S S. aureus ribosomes in a low-magnesium buffer to encourage ribosomal subunit dissociation, and the amount of each GTPase associated with each of the subunits was quantified by Western immunoblotting with anti-His antibodies after sucrose gradient separation. […]
(§5) FIG 2 (p)ppGpp and GDP binding reduces RA-GTPase association to the ribosome. […] After subunit separation and precipitation, bound proteins were detected in the 30S fraction using HRP-conjugated α-His antibodies. […] Bound proteins were detected in the 50S fraction using HRP-conjugated α-His antibodies. […]
(§6) A 500 nM concentration of recombinant 6×His-tagged RA-GTPase was incubated at room temperature for 5 min with 200 nM S. aureus 70S ribosomes in dissociation buffer (20 mM Tris [pH 7.5], 120 mM NH4Cl, 1.5 mM MgCl2, 2 mM β-mercaptoethanol) in the apo form and in the presence of 40 μM GTP, GMPPNP, GDP, ppGpp, or pppGpp. […] Gradients were fractionated by upward displacement of 250-μl aliquots, which were analyzed for RNA content at an absorbance of 260 nm. […]

[4] = target: Era association to the 30S ribosomal subunit (Staphylococcus aureus, UniProt Q2FGF6); assay: In vitro ribosome association assay (sucrose gradient, α-His Western immunoblot), Era; type: binding; details: 40 μM nucleotide; compared to apo, GTP, or GMPPNP-bound states
Sequence of Era association to the 30S ribosomal subunit (Q2FGF6 whole entry): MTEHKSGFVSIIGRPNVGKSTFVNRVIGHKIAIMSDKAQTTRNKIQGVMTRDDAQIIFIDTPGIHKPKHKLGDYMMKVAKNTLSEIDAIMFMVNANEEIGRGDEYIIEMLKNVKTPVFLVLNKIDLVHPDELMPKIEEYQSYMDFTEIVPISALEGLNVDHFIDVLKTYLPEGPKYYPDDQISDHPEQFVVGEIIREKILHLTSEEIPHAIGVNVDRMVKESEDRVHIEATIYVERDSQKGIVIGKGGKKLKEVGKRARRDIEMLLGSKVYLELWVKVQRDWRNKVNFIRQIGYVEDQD
Text: as §4, §5, §6

Sequence of Era (Q2FGF6 whole entry, the tested form may be a part): as the sequence (Q2FGF6 whole entry) above

Row | Compound | Kd (Era) [µM] | Bmax, Era (Era) | Bmax, HflX (HflX) | Kd (RbgA) [µM] | Bmax, RbgA (RbgA) | Kd (RsgA) [µM] | Bmax, RsgA (RsgA) | kapp2 of HflX association to 50S ([1]; GTP: hyperbolic, plateau, ppGpp: independent of 50S concentration) [s⁻¹] | linear increase in kapp1 of HflX, GTP relative to ppGpp or pppGpp ([1]; dependence on 50S concentration) [fold] | Kd (HflX) [µM] | competition of cold unlabeled nucleotide with 32P-labeled GTP, ppGpp, pppGpp [2] | reduction in ribosome binding of HflX [3] [fold] | reduction in ribosome binding of Era [4] [fold]
1 | Nc1nc2c(ncn2[C@@H]2O[C@H](COP(=O)(O)OP(=O)(O)OP(=O)(O)O)[C@@H](O)[C@H]2O)c(=O)[nH]1 [GTP] | 11.5 ± 1.6 | 0.3 ± 0.0 | 0.7 ± 0.3 | 18.5 ± 5.4 | 0.4 ± 0.0 | 3.6 ± 0.4 | 0.8 ± 0.0 | ~2 | 2 | – | – | – | –
2 | Nc1nc2c(ncn2[C@@H]2O[C@H](COP(=O)(O)OP(=O)(O)O)[C@@H](O)[C@H]2O)c(=O)[nH]1 [GDP] | 4.9 ± 0.7 | 0.5 ± 0.0 | 0.7 ± 0.0 | 6.1 ± 1.1 | 0.5 ± 0.0 | 1.8 ± 0.2 | 0.9 ± 0.0 | – | – | 4.9 ± 0.7 | competing more effectively | 2 | 2
